Assay results taken from patent US20020098186A1, “Use of endothelin inhibitors for treatment or prevention of fibrotic disorders” (priority 1999, published 2002).

What was measured:
[1] = test system: rat secondary biliary liver fibrosis (BDO); assay: Histological assessment (staging) of liver fibrosis in BDO rats; assay type: in vivo
Description: Female adult wistar rats, average weight 206±19 g, underwent the following microsurgical procedure under an operating microscope (OPMI 6-2, Zeiss, Germany) (B. Gerling, M. Becker, J. Waldschmidt, D. Schuppan (1996). J. Hepatol. 25:79-84; G. Boigk, L. Stroedter, H. Herbst H, et al. (1997). Hepatology 26:643-639.): 1. midline abdominal incision following anaesthesia with 100 mg/kg ketamine-hydroochloride (Ketanest®, Parke-Davis, Germany) and 10 mg/kg 5,6-dihydro-2-(2,6-xylidino)-4H-1,3-thiazine-hydrochloride (Rompun®, Bayer, Germany); 2. dissection of the common bile duct, insertion of a teflon catheter (Abbocath -T 26 G, venisystems, U.S.A.) and placement of a distal complete and a proximal incomplete ligature with 5-0 silk (Permahand , Ethicon, Germany); 3. retrograde injection of sodium-amidotrizoate (Ethibloc®, Ethicon Germany) at a dose of 0.02 ml/100 g body weight; 4. removal of the catheter, closure of the proximal ligature, scission of the bile duct between the ligatures and wound closure. After bile duct occlusion (BDO), animals received normal chow (Altromin®, Lage, Germany) and were allowed free access to water. […] The following therapeutic groups were formed: 1. BDO and LU at 80 mg/kg/d for 6 weeks (BDO 80/1-6:n=20); 2. BDO and LU at 80 mg/kg/d from week 4-6 of BDO (BDO 80/4-6:n=20); 3. BDO and LU at 10 mg/kg/d (sham 80/ 1-6:n=10), rats without medication (control: n=10) and bile duct occluded animals without treatment for 6 weeks (BDO: n=20) served as controls.
For each liver 1 μm paraffin sections of the right and the left lobe were stained with hematoxylin/eosin, trichrome (Masson-Goldner) and silver impregnation (Gomori), and scores (see below of both lobes averaged. Inflammation and necrosis were graded according to the histological activity index of Knodell et al. (R. G. Knodell, K. G. Ishak, W. C. Black, et al. (1981). Hepatology 1:431-435.). Staging of fibrosis was modified from (G. Boigk, L. Stroedter, H. Herbst H, et al. (1997). Hepatology 26:643-649.) as follows: stage 0; normal; stage I: portal fiels marginally expanded by bile ductules; stage II: expanded portal fields which occasionally […] each other; stage III: markedly expanded portal fields, all of which broadly contact each other, separating hepatocellular islands; stage IV: the liver is entirely filled with fibrotic biliary proliferations that entrap few residual hepatocytes (severe cirrhosis). Scores of the right and left lobes were averaged to give single numerical values for each liver.

[2] = test system: desmin-positive cells (rat hepatic stellate cells); assay: Desmin staining of liver sections (activated hepatic stellate cells); assay type: in vivo; conditions: LU-treated animals (data not shown)
TIMP-1 RNA = assay: Multiprobe RNAse protection assay of liver RNA, TIMP-1; assay type: in vivo, rat; conditions: BDO rats, LU 80 mg/kg/d for 6 weeks; relative to GAPDH; p<0.05
Description: Plasmids encoded predescribed regions of the rat procollagen α1 (I) and […] (GAPDH) genes, encompassing 230 bp (Bam HI/Rsal sites) and 102 bp (position 335-437), resp. (44, 45). The rat tissue inhibitor of metalloproteinase-1 (TIMP-1) probe (position 176-439) was prepared by RT-PCR according to the published sequence (J. P. Iredale, R. C. Benyon, M. J. P. Arthur (1996). Hepatology 24:176-184.), cloned into pZErO-1 (Invitrogen, San Diego, Calif., U.S.A.) and confirmed by restriction enzyme analysis. Preparation of riboprobes: The cDNA templates were linearized with appropriate restriction endonucleases. […] Riboprobes were purified by electrophoresis through a denaturing polyacrylamide gel and the radioactivity of eluted probes were measured by liquid scintillation counting. […] Autoradiographic signals were analyzed with the public domain NTH Image Program. The procollagen α1(I) and TIMP-1 RNA signals were normalized to the signal of GAPDH RNA and expressed as relative abundance (arbitrary units). 10 liver samples each of negative controls, of untreated rats with BDO and of rats with BDO that received LU at 80 mg/kg/d were analyzed.

[3] = BDO/LU 80/1-6: LU 80 mg/kg/d week 1-6
[4] = BDO/LU 80/4-6: LU 80 mg/kg/d week 4-6

SMILES: COc1cc(OC)nc(O[C@H](C(=O)O)C(OC)(c2ccccc2)c2ccccc2)n1 [LU]
- Histological assessment of fibrosis: animals at Stage I [1, 3]: 2
- Histological assessment of fibrosis: animals at Stage II [1, 3]: 4
- Histological assessment of fibrosis: animals at Stage III [1, 3]: 4
- Histological assessment of fibrosis: animals at Stage I [1, 4]: 4
- Histological assessment of fibrosis: animals at Stage II [1, 4]: 5
- Histological assessment of fibrosis: animals at Stage III [1, 4]: 3
- Histological assessment of fibrosis: animals at Stage IV [1, 4]: 2
- Histological assessment of fibrosis: animals at Stage I ([1]; headed BDO/LU 80/1-6): 8
- Histological assessment of fibrosis: animals at Stage II ([1]; headed BDO/LU 80/1-6): 5
- Histological assessment of fibrosis: animals at Stage III ([1]; headed BDO/LU 80/1-6): 4
- Histological assessment of fibrosis: animals at Stage IV ([1]; headed BDO/LU 80/1-6): 3
- Histological fibrosis score ([1]; rats with BDO, administration of LU): improved histological fibrosis score
- Architectural distortion of the liver, semiquantitatively graded ([1]; rats with BDO, low-dose vs high-dose group (not shown)): even more significantly reduced in the low-than in the high-dose group
- Number of desmin-positive cells in liver sections [2]: significantly reduced
- Reduction of TIMP-1 mRNA level (TIMP-1 RNA): 55%
